In US9321748B2, “Aminopyridine derived compounds as LRRK2 inhibitors” (H. Lundbeck A/S, priority 2013, dated 2016):

Key:
LRRK2 G2019S = LRRK2 G2019S (Homo sapiens (Human), UniProt Q5S007, G2019S); experiment: LRRK2 G2019S kinase activity assay (LanthaScreen TR-FRET); type: biochemical; conditions: 250 pM LRRK2 G2019S kinase, 1.3 mM ATP, 0.4 μM fluorescein-LRRKtide
Description: (§1) LRRK2 Wild-Type and G2019S Kinase Activity Assay.
(§2) LRRK2 kinase activity is measured using a LanthaScreen kinase activity assay available from Invitrogen (Life Technologies Corporation). […] The phosphorylated peptide is recognized by a terbium-labelled phospho-specific anti-LRRKtide antibody and, subsequently, the phosphorylated LRRKtide can be quantified by the extent of TR-FRET between the terbium donor and fluorescein acceptor.
(§3) The LRRK2 kinase is obtained from Invitrogen (Life Technologies Corporation) and comprises residue 970 to 2527 of the full length human wildtype LRRK2 kinase or a similar sequence with the G2019S mutation. As discussed above, this mutation increases the kinase activity relative to the wild type. The kinase reactions are performed in a […] volume in 384-well plates. The kinase reaction buffer consists of 50 mM Tris pH 8.5, 0.01% BRIJ-35, 10 mM MgCl2, 1 mM EGTA, and 2 mM DTT.
(§4) The reaction mixture (20 μl total volume) is incubated for 2 hours at 30° C. before the reaction is terminated by addition of 10 mM EDTA and 1 nM terbium-labelled anti-phospho-LRRKtide antibody (final volume […]). The mixture is further incubated for 30 minutes at RT. TR-FRET is measured by excitation of the terbium-donor with 340 nm light and subsequent (delay time 100 μs) measurement of terbium and fluorescein emission at 495 nm and 520 nm, respectively, over a time window of 1000 μs. The measurement is repeated 10 times for fluorescein and 10 times for terbium emission with a 2000 μs time window between repeats. TR-FRET measurements are performed on a […] plate. The TR-FRET signal is calculated as the emission-ratio at 520 nm over 495 nm.
(§5) Test compound potency (IC50) was estimated by nonlinear regression using the sigmoidal dose-response (variable slope) using Xlfit 4 (IDBS, Guildford, Surrey, UK, model 205). y=(A+((B−A)/(1+((C/x)^D)))) where y is the normalized TR-TRET ratio measurement for a given concentration of test compound, x is the concentration of test compound, A is the estimated efficacy (% inhibition) at infinite compound dilution, and B is the maximal efficacy (% inhibition). C is the IC50 value and D is the Hill slope coefficient. IC50 estimates were obtained from independent experiment and the logarithmic average was calculated.

LRRK2 WT = LRRK2 WT (Homo sapiens (Human), UniProt Q5S007); experiment: LRRK2 wild-type kinase activity assay (LanthaScreen TR-FRET); type: biochemical; conditions: 1 nM LRRK2 WT kinase, 1.3 mM ATP, 0.4 μM fluorescein-LRRKtide
Description: as §1, §2, §3, §4, §5

LRRK2 WT, sequence (Q5S007 970-2527): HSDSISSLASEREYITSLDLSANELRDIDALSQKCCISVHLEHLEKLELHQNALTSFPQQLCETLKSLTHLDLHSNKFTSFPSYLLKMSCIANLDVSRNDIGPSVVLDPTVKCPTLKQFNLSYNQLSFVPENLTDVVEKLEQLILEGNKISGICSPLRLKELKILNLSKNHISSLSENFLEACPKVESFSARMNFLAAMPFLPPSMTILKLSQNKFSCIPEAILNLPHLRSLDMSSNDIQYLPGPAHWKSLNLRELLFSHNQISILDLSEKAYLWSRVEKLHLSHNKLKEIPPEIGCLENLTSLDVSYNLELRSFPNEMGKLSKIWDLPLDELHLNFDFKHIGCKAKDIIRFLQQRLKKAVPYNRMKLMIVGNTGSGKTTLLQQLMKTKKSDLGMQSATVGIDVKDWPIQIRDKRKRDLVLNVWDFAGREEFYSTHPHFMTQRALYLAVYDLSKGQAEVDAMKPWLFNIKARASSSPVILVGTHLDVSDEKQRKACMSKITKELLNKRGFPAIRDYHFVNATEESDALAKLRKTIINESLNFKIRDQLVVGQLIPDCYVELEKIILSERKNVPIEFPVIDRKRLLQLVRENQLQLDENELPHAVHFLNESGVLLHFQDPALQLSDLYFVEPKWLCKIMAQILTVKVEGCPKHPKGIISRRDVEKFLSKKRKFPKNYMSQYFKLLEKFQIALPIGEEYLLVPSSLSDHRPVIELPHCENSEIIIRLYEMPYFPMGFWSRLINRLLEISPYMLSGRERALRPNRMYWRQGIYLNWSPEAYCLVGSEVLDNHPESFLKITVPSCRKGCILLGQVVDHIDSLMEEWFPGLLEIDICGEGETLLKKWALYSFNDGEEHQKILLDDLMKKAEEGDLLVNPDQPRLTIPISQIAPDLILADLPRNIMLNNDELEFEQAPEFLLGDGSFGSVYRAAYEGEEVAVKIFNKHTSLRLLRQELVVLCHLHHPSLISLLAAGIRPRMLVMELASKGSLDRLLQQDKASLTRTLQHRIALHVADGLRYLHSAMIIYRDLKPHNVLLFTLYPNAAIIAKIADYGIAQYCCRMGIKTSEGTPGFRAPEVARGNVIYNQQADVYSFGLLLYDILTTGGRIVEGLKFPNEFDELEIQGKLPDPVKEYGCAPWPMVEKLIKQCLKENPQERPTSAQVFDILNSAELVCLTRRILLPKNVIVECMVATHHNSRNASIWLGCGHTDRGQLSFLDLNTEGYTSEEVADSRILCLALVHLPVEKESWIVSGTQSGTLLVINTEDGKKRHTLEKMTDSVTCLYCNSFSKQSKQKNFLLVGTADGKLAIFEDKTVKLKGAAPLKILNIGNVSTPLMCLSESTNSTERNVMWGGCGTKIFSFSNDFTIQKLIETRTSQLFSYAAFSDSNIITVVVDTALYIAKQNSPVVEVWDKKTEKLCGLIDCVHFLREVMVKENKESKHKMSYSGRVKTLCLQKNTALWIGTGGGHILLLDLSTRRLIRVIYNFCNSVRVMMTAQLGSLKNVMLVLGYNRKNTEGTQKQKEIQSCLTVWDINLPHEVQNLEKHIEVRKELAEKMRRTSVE
LRRK2 G2019S, sequence (Q5S007 970-2527 G2019S): as the sequence (Q5S007 970-2527) above, with G1050S counted along it

Structure (SMILES) | IC50 (LRRK2 G2019S) [nM] | IC50 (LRRK2 WT) [nM]
CC(C)c1nnc(-c2cc(-c3ccc4[nH]ccc4c3)cnc2N)o1 [Example 1, 5-(1H-Indol-5-yl)-3-(5-isopropyl-[1,3,4]oxadiazol-2-yl)-pyridin-2-ylamine] | 910 | –
Nc1ncc(-c2ccc3[nH]ccc3c2)cc1-c1nnc(C2CC2)o1 [Example 2, 3-(5-Cyclopropyl-[1,3,4]oxadiazol-2-yl)-5-(1H-indol-5-yl)-pyridin-2-ylamine] | 1000 | 570
CN1CCc2cc(-c3cnc(N)c(-c4nnc(C5CC5)o4)c3)ccc21 [Example 3, 3-(5-Cyclopropyl-[1,3,4]oxadiazol-2-yl)-5-(1-methyl-2,3-dihydro-1H-indol-5-yl)-pyridin-2-ylamine] | 710 | 970
Cc1ccc(-c2cnc(N)c(-c3nnc(C4CCN(C)CC4)o3)c2)cc1 [Example 4, 3-[5-(1-Methyl-piperidin-4-yl)-[1,3,4]oxadiazol-2-yl]-5-p-tolyl-pyridin-2-ylamine] | 860 | 3600
CN1CCc2cc(-c3cnc(N)c(-c4nnc(C5CCNCC5)o4)c3)ccc21 [Example 5, 5-(1-Methyl-2,3-dihydro-1H-indol-5-yl)-3-(5-piperidin-4-yl-[1,3,4]oxadiazol-2-yl)-pyridin-2-ylamine] | 380 | 2200
Nc1ncc(-c2ccc(CN3CCOCC3)cc2)cc1-c1nnc(C2CC2)o1 [Example 6, 3-(5-Cyclopropyl-[1,3,4]oxadiazol-2-yl)-5-(4-morpholin-4-ylmethyl-phenyl)-pyridin-2-ylamine] | 390 | 490
COc1cccc(-c2cnc(N)c(-c3nnc(C4CCNCC4)o3)c2)c1 [Example 7, 5-(3-Methoxy-phenyl)-3-(5-piperidin-4-yl-[1,3,4]oxadiazol-2-yl)-pyridin-2-ylamine] | 1000 | 3300
COc1cccc(-c2cnc(N)c(-c3nnc(C4CCN(C)CC4)o3)c2)c1 [Example 8, 5-(3-Methoxy-phenyl)-3-[5-(1-methyl-piperidin-4-yl)-[1,3,4]oxadiazol-2-yl]-pyridin-2-ylamine] | 880 | 2200
CC(C)n1cc(-c2cc(-c3ccc4c(ccn4C)c3)cnc2N)nn1 [Example 9, 3-(1-Isopropyl-1H-[1,2,3]triazol-4-yl)-5-(1-methyl-1H-indol-5-yl)-pyridin-2-ylamine] | 540 | 550
CC(C)n1cc(-c2cc(-c3ccc4c(c3)CCN4C)cnc2N)nn1 [Example 10, 3-(1-Isopropyl-1H-[1,2,3]triazol-4-yl)-5-(1-methyl-2,3-dihydro-1H-indol-5-yl)-pyridin-2-ylamine] | 350 | 620
CC(C)n1cc(-c2cc(-c3ccc(CN4CCOCC4)cc3)cnc2N)nn1 [Example 12, 3-(1-Isopropyl-H-[1,2,3]triazol-4-yl)-5-(4-morpholin-4-ylmethyl-phenyl)-pyridin-2-ylamine] | 160 | 300
CC(C)n1cc(-c2cc(-c3ccc(N4CCOCC4)cc3)cnc2N)nn1 [Example 13, 3-(1-Isopropyl-1H-[1,2,3]triazol-4-yl)-5-(4-morpholin-4-yl-phenyl)-pyridin-2-ylamine] | 280 | 340
CC(C)n1cc(-c2cc(-c3ccc(CCN4CCOCC4)cc3)cnc2N)nn1 [Example 14, 3-(1-Isopropyl-1H-[1,2,3]triazol-4-yl)-5-[4-(2-morpholin-4-yl-ethyl)-phenyl]-pyridin-2-ylamine] | 340 | 600

The remaining lines, values ahead:

IC50 (LRRK2 G2019S) [nM] | IC50 (LRRK2 WT) [nM] | Structure (SMILES)
340 | 570 | CC(C)n1cc(-c2nc(-c3ccc4c(c3)CCN4C)cnc2N)nn1 [Example 11, 3-(1-Isopropyl-1H-[1,2,3]triazol-4-yl)-5-(1-methyl-2,3-dihydro-1H-indol-5-yl)-pyrazin-2-ylamine]
370 | 200 | CC(C)n1cc(-c2cc(-c3ccc(CN4CCOCC4)c(F)c3)cnc2N)nn1 [Example 15, 5-(3-fluoro-4-(morpholinomethyl)phenyl)-3-(1-isopropyl-1H-1,2,3-triazol-4-yl)pyridin-2-amine]
510 | 580 | CC(C)n1cc(-c2cc(-c3ccc(C(=O)N4CCOCC4)c(F)c3)cnc2N)nn1 [Example 16, (4-(6-amino-5-(1-isopropyl-1H-1,2,3-triazol-4-yl)pyridin-3-yl)-2-fluorophenyl)(morpholino)methanone]
95 | 91 | COc1cc(-c2cnc(N)c(-c3cn(C(C)C)nn3)c2)ccc1C(=O)N1CCOCC1 [Example 17, [4-[6-amino-5-(1-isopropyltriazol-4-yl)-3-pyridyl]-2-methoxy-phenyl]-morpholino-methanone]
86 | 93 | COc1cc(-c2cnc(N)c(-c3cn(C(C)C)nn3)c2)ccc1CN1CCOCC1 [Example 18, 3-(1-isopropyltriazol-4-yl)-5-[3-methoxy-4-(morpholinomethyl)phenyl]pyridin-2-amine]
880 | 1000 | CC(C)n1cc(-c2cc(-c3ccc(F)c(CN4CCOCC4)c3)cnc2N)nn1 [Example 19, 5-[4-fluoro-3-(morpholinomethyl)phenyl]-3-(1-isopropyltriazol-4-yl)pyridin-2-amine]
110 | 99 | Cc1cc(-c2cnc(N)c(-c3cn(C(C)C)nn3)c2)ccc1C(=O)N1CCOCC1 [Example 20, [4-[6-amino-5-(1-isopropyltriazol-4-yl)-3-pyridyl]-2-methyl-phenyl]-morpholino-methanone]
240 | 260 | Cc1cc(-c2cnc(N)c(-c3cn(C(C)C)nn3)c2)ccc1CN1CCOCC1 [Example 21]
290 | 290 | CC(C)n1cc(-c2cc(-c3ccc(C(=O)N4CCOCC4)c(Cl)c3)cnc2N)nn1 [Example 22, [4-[6-amino-5-(1-isopropyltriazol-4-yl)-3-pyridyl]-2-chloro-phenyl]-morpholino-methanone]
220 | 320 | CC(C)n1cc(-c2cc(-c3ccc(CN4CCOCC4)c(Cl)c3)cnc2N)nn1 [Example 23, 5-[3-Chloro-4-(morpholinomethyl)phenyl]-3-(1-isopropyltriazol-4-yl)pyridin-2-amine]
500 | 370 | CC(C)n1cc(-c2cc(-c3cccc(CN4CCOCC4)c3)cnc2N)nn1 [Example 24, 3-(1-Isopropyltriazol-4-yl)-5-[3-(morpholinomethyl)phenyl]pyridin-2-amine]
950 | 650 | CC(C)n1cc(-c2cc(-c3cccc(C(=O)N4CCOCC4)c3)cnc2N)nn1 [Example 25, [3-[6-Amino-5-(1-isopropyltriazol-4-yl)-3-pyridyl]phenyl]-morpholino-methanone]
690 | 490 | CC(C)n1cc(-c2cc(-c3cc(Cl)cc(C(=O)N4CCOCC4)c3)cnc2N)nn1 [Example 26, [3-[6-Amino-5-(1-isopropyltriazol-4-yl)-3-pyridyl]-5-chloro-phenyl]-morpholino-methanone]
430 | 370 | CC(C)n1cc(-c2cc(-c3ccc(C(=O)N4CCOCC4)cc3)cnc2N)nn1 [Example 28, [4-[6-Amino-5-(1-isopropyltriazol-4-yl)-3-pyridyl]phenyl]-morpholino-methanone]
520 | 670 | CC(C)n1cc(-c2cc(-c3ccc(CC(=O)N4CCOCC4)cc3)cnc2N)nn1 [Example 30, 2-[4-[6-amino-5-(1-isopropyltriazol-4-yl)-3-pyridyl]phenyl]-1-morpholino-ethanone]
